Results published in paper PMC11843629, “Development of ketobenzothiazole-based peptidomimetic TMPRSS13 inhibitors with low nanomolar potency” (Journal of Enzyme Inhibition and Medicinal Chemistry, 2025).
Residue numbers refer to the chain shown, from its start. Where two headings read alike, the source gives them in different places.

Tests used:
TMPRSS13 = target: T1, TMPRSS13 (Homo sapiens, UniProt Q9BYE2, K566A/R563A/R565A); assay: In vitro inhibition assay, recombinant TMPRSS13-AFAAS-6His, Boc-RVRR-AMC; type: biochemical; details: dose-response curve, Cheng-Prusoff equation
T1 construct: Shedding of the TMPRSS13 catalytic domain was detected for both constructs in the cell media; made in house; host or cells: Expi293F cells
T1 sequence (Q9BYE2 with tags, fused parts or gaps isoform Q9BYE2-6 limits assumed): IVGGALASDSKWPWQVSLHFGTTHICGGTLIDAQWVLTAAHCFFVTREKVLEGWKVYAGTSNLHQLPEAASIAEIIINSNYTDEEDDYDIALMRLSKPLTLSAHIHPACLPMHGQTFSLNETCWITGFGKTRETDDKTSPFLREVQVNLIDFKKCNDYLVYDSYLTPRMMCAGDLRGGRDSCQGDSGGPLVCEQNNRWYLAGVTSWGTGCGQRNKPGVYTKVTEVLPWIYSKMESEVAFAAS
Protocol: TMPRSS13-AFAAS-6His was expressed via the Expi293 Expression System Kit (Thermo Fisher Scientific, A14635) according to the manufacturer’s instructions and purified via IMAC chromatography. Briefly, Expi293F cells were transfected for 48 h with the TMPRSS13-AFAAS-6His construct, and media containing the shed recombinant protease was injected on a HisTrap Excel column (Cytiva, 17371206) via an ÄKTA Start protein purification system (Cytiva). The bound proteins were then eluted (20 mM sodium phosphate pH 7.4, 500 mM NaCl, and 500 mM imidazole), and the TMPRSS13-containing fractions were dialysed for 16 h at 4 °C in storage buffer (20 mM sodium phosphate pH 7.4, 150 mM NaCl, and 10% glycerol). Proteins were then concentrated via a 10 kDa Amicon Ultra centrifugal filter (Millipore Sigma, UFC8010) and stored at −80 °C.
(§1) Recombinant TMPRSS13-AFAAS-6His (this study) and matriptase[34] were expressed and purified as described. Recombinant human furin, Factor Xa (R&D Systems) and thrombin (MilliporeSigma) were obtained from commercial sources. Assays were performed in a buffer composed of 50 mM HEPES pH 7.4, 1 mM β-mercaptoethanol, 1 mM CaCl2 and 500 μg/ml BSA for furin and 50 mM HEPES pH 7.4, 150 mM NaCl and 0.1% BSA for other proteases. Assays were performed at room temperature using fluorogenic substrates (Boc-RVRR-AMC for furin and TMPRSS13, Boc-QAR-AMC for other proteases). The enzymatic activity was measured via fluorescence (excitation at 360 nm and emission at 460 nm) at room temperature using an HTX Synergy microplate reader (Agilent). Kis for TMPRSS13 and Factor Xa (FXa) were derived from IC50 dose–response curves using the Cheng-Prusoff equation[35] for reversible competitive inhibitors. For matripase, a plot of the enzyme velocity as a function of the inhibitor concentration was fitted with nonlinear regression analysis via the Morrison Ki equation[36] for competitive tight-binding inhibitors.

furin = target: T2, furin (Homo sapiens, UniProt P09958); assay: In vitro inhibition assay, furin, Boc-RVRR-AMC; type: biochemical
T2 construct: purchased R&D Systems
Protocol: as §1

WT TMPRSS13 = target: T3, WT TMPRSS13 (Homo sapiens, UniProt Q9BYE2); assay: In cellulo inhibitory activity in TMPRSS13-transfected Vero cells; type: cell-based; details: 10 µM compound, 24 h, media, relative to DMSO; for remaining activity at 10 µM: read-out: residual activity of TMPRSS13
T3 construct: the full length TMPRSS13 (TMPRSS13-WT); expressed in transfected cells; host or cells: Vero C1008 (Vero E6) cells
T3 sequence (Q9BYE2 326-567 isoform Q9BYE2-6 limits assumed): T1 sequence (Q9BYE2 with tags, fused parts or gaps isoform Q9BYE2-6 limits assumed) with A238R, A240R, A241K
Protocol: Vero C1008 cells were grown in 12-well plates (200K cells per well) and transfected for 24 h via Lipofectamine 3000 (Life Technologies) with one of the following plasmids: pcDNA3.1 (empty vector, EV), pcDNA3.1-TMPRSS13 WT or pcDNA3.1-TMPRSS13-AFAAS-6His. The cells were then washed 2 times with PBS before HCell-100 medium (Wisent) containing the indicated concentrations of each compound or the control condition (0.01% DMSO) was added. After 24 h of incubation with the compounds, the medium was harvested, and 90 μL was placed in 96-well plate wells with 10 µL of 200 μM Boc-RVRR-AMC. Fluorescence was acquired at room temperature in an FLx800 TBE microplate reader, with excitation at 360 nm and emission at 460 nm. The background was then subtracted by removing the signal recorded with the cells transfected with the empty vector (pcDNA3.1). Proteolytic activity results are represented as a percentage of the DMSO-treated condition. The IC50 was calculated via nonlinear regression of the compound concentration relative to the velocity.

matriptase = target: T4, matriptase (Homo sapiens, UniProt Q9Y5Y6); assay: In vitro inhibition assay, matriptase, Boc-QAR-AMC; type: biochemical; details: Morrison Ki equation, tight-binding
T4 construct: made in house
T4 sequence (Q9Y5Y6 1-855): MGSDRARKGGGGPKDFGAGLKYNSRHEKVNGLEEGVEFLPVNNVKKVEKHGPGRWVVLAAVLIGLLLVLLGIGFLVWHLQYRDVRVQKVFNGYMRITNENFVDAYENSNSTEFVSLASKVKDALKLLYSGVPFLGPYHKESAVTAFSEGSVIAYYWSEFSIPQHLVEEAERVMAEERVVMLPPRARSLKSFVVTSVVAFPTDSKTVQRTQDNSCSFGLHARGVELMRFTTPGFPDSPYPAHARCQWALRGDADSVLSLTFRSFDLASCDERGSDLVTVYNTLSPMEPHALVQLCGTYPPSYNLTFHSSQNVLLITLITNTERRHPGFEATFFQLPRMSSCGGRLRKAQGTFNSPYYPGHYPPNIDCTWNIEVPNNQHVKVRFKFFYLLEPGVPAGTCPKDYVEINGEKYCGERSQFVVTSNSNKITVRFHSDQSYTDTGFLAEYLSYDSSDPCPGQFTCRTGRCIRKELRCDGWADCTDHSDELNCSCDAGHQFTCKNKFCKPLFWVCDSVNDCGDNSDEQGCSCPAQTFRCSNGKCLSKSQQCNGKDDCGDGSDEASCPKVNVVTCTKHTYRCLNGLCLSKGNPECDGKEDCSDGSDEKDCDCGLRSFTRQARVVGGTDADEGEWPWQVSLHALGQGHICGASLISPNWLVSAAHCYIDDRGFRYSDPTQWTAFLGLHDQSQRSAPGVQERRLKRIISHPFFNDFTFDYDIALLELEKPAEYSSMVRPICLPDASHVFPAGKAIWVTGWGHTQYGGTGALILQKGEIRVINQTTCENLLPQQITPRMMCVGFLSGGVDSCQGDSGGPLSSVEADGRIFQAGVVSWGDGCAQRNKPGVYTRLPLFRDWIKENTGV
Protocol: as §1

thrombin = target: T5, thrombin (Homo sapiens, UniProt P00734); assay: In vitro inhibition assay, thrombin, Boc-QAR-AMC; type: biochemical
T5 construct: purchased MilliporeSigma
Protocol: as §1

Factor Xa = target: T6, Factor Xa (Homo sapiens, UniProt P00742); assay: In vitro inhibition assay, Factor Xa, Boc-QAR-AMC; type: biochemical; details: Cheng-Prusoff equation
T6 construct: purchased R&D Systems
Protocol: as §1

in vitro = details: final conc. 0.2 mM, 37 °C
Description: Adult male Sprague-Dawley rats, weighing between 225 and 300 g (Charles River Laboratories, St. Constant, Canada), were housed in groups of four per double-decker cage on Aspen shavings in a quiet environment. They were maintained under a 12-h light/dark cycle with unrestricted access to food and water. All experimental protocols received approval from the Animal Care Committee of the Université de Sherbrooke, adhering to the Canadian Council on Animal Care guidelines. The procedures also followed the ARRIVE guidelines (Animals in Research: Reporting In Vivo Experiments) and the United States NIH regulations (Ethics approval ID: 2022–3440). To evaluate the stability of compounds in plasma, 6 rats were anaesthetised with 2 L/min oxygen and 5% isoflurane, after which plasma was collected, pooled, and stored frozen until experiments were performed.
For evaluating plasma stability, rats were anaesthetised using a flow of 2 L/min of oxygen combined with 5% isoflurane. Blood was obtained via cardiac puncture from the left ventricle using a 20 G ½ needle, collected in pre-chilled Vacutainer K2EDTA tubes (367861), and maintained on wet ice. The blood was then centrifuged at 2000 xG for 15 min at 4 °C. Plasma samples were pooled from six rats, aliquoted, and stored at −80 °C. […] To terminate the reaction, 140 μL of a 1:1 acetonitrile-ethanol solution containing 0.25 mM N,N-dimethylbenzamide (used as an internal standard) was added. The resulting mixture was transferred onto an Impact Protein Precipitation filter plate (Phenomenex, California), with a 96-well UPLC plate positioned below to collect the filtrates. Both plates were centrifuged at 500 × g for 10 min at 4 °C. The filtrates were diluted with 30 μL of distilled water before analysis using an Acquity UPLC-MS system class H (column Acquity UPLC protein BEH C18 (2.1 mm × 50 mm), 1.7 μm particles, 130 Å pore size). The peptide’s half-life was determined from the degradation profile utilising the exponential one-phase decay function in GraphPad Prism 9. Mass spectra obtained at time points close to the calculated half-life were compared with those at 0 min (plasma inactivated prior to compound addition) to identify cleavage fragments.

human trypsin = assay: Proteolysis assay (stability) with human trypsin; type: in vitro ADME; details: human trypsin (isolated protease), pH 7.4, compound final conc. 10 µM, 37 °C
Protocol: For the proteolysis assay, human trypsin (#T6424, Sigma–Aldrich, Saint-Louis, Missouri, USA) was resuspended in 1 mM HCl and 20 mM CaCl2, pH 3, and diluted to a final concentration of 0.1 mg/ml in PBS buffer (pH 7.4, 10 mM PO43-, 150 mM NaCl). The control peptide R8 and the compounds of interest were added to a 96-well plate (37 °C) to a final concentration of 10 µM. Trypsin (0.1 µg/ml) was added to the wells for 0, 0.5, 1, 2, 4 and 6 h. The plate was quenched with AcN/EtOH (1:1) 1% formic acid and 0.25 mM N,N-dimethylbenzamide (IS) and centrifuged at 4 °C.

T6 sequence (P00742 235-488 limits assumed): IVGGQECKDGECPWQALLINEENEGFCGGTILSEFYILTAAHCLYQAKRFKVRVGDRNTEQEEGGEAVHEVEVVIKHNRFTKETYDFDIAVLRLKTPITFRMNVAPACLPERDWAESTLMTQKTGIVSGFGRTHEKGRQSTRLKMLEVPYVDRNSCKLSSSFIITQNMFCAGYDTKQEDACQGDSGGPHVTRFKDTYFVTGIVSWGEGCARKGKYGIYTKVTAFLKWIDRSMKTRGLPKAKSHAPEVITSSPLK
T6 sequence (P00742 41-179 partner limits assumed): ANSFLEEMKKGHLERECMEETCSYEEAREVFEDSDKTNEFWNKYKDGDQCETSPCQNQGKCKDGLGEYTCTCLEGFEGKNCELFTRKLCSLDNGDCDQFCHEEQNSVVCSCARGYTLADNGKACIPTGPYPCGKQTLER
T2 sequence (P09958 108-794): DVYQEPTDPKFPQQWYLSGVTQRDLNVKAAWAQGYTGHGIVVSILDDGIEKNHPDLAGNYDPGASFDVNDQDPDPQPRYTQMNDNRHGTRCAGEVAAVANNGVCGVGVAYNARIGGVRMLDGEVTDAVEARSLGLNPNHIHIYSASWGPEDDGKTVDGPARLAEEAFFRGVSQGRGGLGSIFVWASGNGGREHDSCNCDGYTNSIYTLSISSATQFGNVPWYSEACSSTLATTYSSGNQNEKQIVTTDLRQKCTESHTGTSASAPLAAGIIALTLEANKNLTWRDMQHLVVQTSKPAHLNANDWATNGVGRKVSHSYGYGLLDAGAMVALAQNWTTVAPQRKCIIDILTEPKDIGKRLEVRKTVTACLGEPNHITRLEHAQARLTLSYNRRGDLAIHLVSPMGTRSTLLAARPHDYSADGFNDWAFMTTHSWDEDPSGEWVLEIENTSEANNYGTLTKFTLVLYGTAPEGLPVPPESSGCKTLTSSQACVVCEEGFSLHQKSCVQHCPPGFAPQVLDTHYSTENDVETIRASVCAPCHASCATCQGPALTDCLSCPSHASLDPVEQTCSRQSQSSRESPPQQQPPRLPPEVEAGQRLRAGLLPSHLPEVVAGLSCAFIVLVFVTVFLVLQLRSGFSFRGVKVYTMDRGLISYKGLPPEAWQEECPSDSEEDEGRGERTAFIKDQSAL

Row | Compound | Ki (TMPRSS13) | also measured
1 | N=C(N)NCCCCC(=O)N[C@@H](CCC(N)=O)C(=O)N[C@@H](CCc1ccccc1)C(=O)N[C@@H](CCCNC(=N)N)C(O)c1nc2ccccc2s1 (stereo partly drawn) [N-0430(OH), (H)-RQhFR-(OH)bt] | > 10000 nM | –
2 | N=C(N)NCCC[C@H](NC(=O)[C@@H]1CCCN1C(=O)[C@H](CCC(N)=O)NC(=O)[C@@H](N)CCCNC(=N)N)C(=O)c1nc2ccccc2s1 [Compound N-0107, RQPR-kbt] | 14.7 nM | –
3 | N=C(N)NCCC[C@H](NC(=O)[C@H](Cc1ccc(O)cc1)NC(=O)[C@H](CCC(N)=O)NC(=O)[C@@H](N)CCCNC(=N)N)C(=O)c1nc2ccccc2s1 [Compound N-0108] | 22.3 nM | –
4 | N=C(N)NCCC[C@H](NC(=O)[C@H](Cc1ccccc1)NC(=O)CCCC(N)=O)C(=O)c1nc2ccccc2s1 [Compound N-0388, (H)-QFR-Kbt] | 1440 nM | Ki (furin): > 10000 nM; residual activity of TMPRSS13 (WT TMPRSS13; 10 µM): 92%; remaining activity at 10 µM (WT TMPRSS13; Vero): 72%; Ki (matriptase): 24.2 nM; Ki (thrombin): > 10000 nM; Ki (Factor Xa): 1200 ± 167 nM
5 | N=C(N)NCCC[C@H](NC(=O)[C@H](Cc1ccc(F)cc1)NC(=O)[C@H](CCC(N)=O)NC(=O)[C@@H](N)CCCNC(=N)N)C(=O)c1nc2ccccc2s1 [Compound N-0136] | 17.7 nM | –
6 | C[C@H](NC(=O)[C@H](CCC(N)=O)NC(=O)[C@@H](N)CCCCNC(=N)N)C(=O)N[C@@H](CCCNC(=N)N)C(=O)c1nc2ccccc2s1 [Compound N-0179] | 24.8 nM | –
7 | C[C@H](NC(=O)[C@H](CCC(N)=O)NC(=O)[C@@H](N)CCCNC(=N)N)C(=O)N[C@@H](CCCNC(=N)N)C(=O)c1nc2ccccc2s1 [Compound N-0100] | 31.4 nM | –
8 | N=C(N)NCCC[C@H](NC(=O)[C@H](CCc1ccccc1)NC(=O)[C@H](CCC(N)=O)NC(=O)[C@@H](N)CCCNC(=N)N)C(=O)c1nc2ccccc2s1 [Compound N-0159, RQhFR-kbt] | 10.3 nM | remaining activity at 10 µM (WT TMPRSS13): 37.7%; half-life at 0.2 mM (in vitro; male, Sprague-Dawley, rat, pooled rat plasma (K2EDTA), Mean half-life, Plasma): 9 min; Mean half-life, Plasma (in vitro; rat plasma (male)): 8.97 min; half-life at 10 µM (human trypsin): 38.4 h
9 | C[C@H](NC(=O)[C@H](CCC(N)=O)NC(=O)[C@H](CCCNC(=N)N)NC(=O)c1ccccc1)C(=O)N[C@@H](CCCNC(=N)N)C(=O)c1nc2ccccc2s1 [Compound N-0182, PhCO-RQAR-Kbt] | 28.5 nM | –
10 | C[C@H](NC(=O)CCCCNC(=N)N)C(=O)N[C@@H](Cc1ccccc1)C(=O)N[C@@H](CCCNC(=N)N)C(=O)c1nc2ccccc2s1 [Compound N-0439, (H)-RAFR-Kbt] | 35.9 nM | –
11 | N=C(N)NCCCCC(=O)N[C@@H](CCC(N)=O)C(=O)N[C@@H](CC1CCCCC1)C(=O)N[C@@H](CCCNC(=N)N)C(=O)c1nc2ccccc2s1 [Compound N-0678] | 30 nM | –
